# Test results: ChEMBL document CHEMBL4145452, “Polymeric bile acid sequestrants: Review of design, in vitro binding activities, and hypocholesterolemic effects” (Eur J Med Chem, 2018)
# Species on record: Homo sapiens
# Experiment: Hypocholesterolemic effect in hypercholesterolemia patient assessed as decrease in LDL cholesterol level
# Format: functional
# Parameters: scale not given: the % may be the effect or the level left
smiles,measurement,value
CC[C@H](C)C(=O)O[C@H]1C[C@@H](C)C=C2C=C[C@H](C)[C@H](CC[C@@H]3C[C@@H](O)CC(=O)O3)[C@H]21 [LOVASTATIN],Activity,22%
